Test results reported in ChEMBL document CHEMBL4507329, “Data for DCP probe BTZO-1” (2021).

Tests used:
Details in all cases: Compound concentration 1000.0 nM
[1] = tested on: Tyrosine-protein kinase ABL1 (Homo sapiens), P00519 [H396P]
[2] = target: Casein kinase I isoform alpha (Homo sapiens) (UniProt P48729)
[3] = target: Mitogen-activated protein kinase 14 (Homo sapiens) (UniProt Q16539)
[4] = target: Ephrin type-A receptor 6 (Homo sapiens) (UniProt Q9UF33)
[5] = target: Mitogen-activated protein kinase 6 (Homo sapiens) (UniProt Q16659)
[6] = target: Dual specificity testis-specific protein kinase 1 (Homo sapiens) (UniProt Q15569)
[7] = target: Ankyrin repeat and protein kinase domain-containing protein 1 (Homo sapiens) (UniProt Q8NFD2)
[8] = tested on: Fibroblast growth factor receptor 3 (Homo sapiens), P22607 [G697C]
[9] = target: MAP kinase-interacting serine/threonine-protein kinase 2 (Homo sapiens) (UniProt Q9HBH9)
[10] = target: Proto-oncogene tyrosine-protein kinase receptor Ret (Homo sapiens) (UniProt P07949)
[11] = target: Phosphatidylinositol 4-kinase beta (Homo sapiens) (UniProt Q9UBF8)
[12] = target: Serine/threonine-protein kinase PRP4 homolog (Homo sapiens) (UniProt Q13523)
[13] = target: Serine/threonine-protein kinase pim-2 (Homo sapiens) (UniProt Q9P1W9)
[14] = target: Receptor-interacting serine/threonine-protein kinase 4 (Homo sapiens) (UniProt P57078)
[15] = tested on: Phosphatidylinositol 4,5-bisphosphate 3-kinase catalytic subunit alpha isoform (Homo sapiens), P42336 [H1047Y]
[16] = tested on: Mast/stem cell growth factor receptor Kit (Homo sapiens), P10721 [V559D,T670I]
[17] = target: Serine/threonine-protein kinase 32B (Homo sapiens) (UniProt Q9NY57)
Serine/threonine-protein kinase 32B (Homo sapiens), sequence (Q9NY57 whole entry): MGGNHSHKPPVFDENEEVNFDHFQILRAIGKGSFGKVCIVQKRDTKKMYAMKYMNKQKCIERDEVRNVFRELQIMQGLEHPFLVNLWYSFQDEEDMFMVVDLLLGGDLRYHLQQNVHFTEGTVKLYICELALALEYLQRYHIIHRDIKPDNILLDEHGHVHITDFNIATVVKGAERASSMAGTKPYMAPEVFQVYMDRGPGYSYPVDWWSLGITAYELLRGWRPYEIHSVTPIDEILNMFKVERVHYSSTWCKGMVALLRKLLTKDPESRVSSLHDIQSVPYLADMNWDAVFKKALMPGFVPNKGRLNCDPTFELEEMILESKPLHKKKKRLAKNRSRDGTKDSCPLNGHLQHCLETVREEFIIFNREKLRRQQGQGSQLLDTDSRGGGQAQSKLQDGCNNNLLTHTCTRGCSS

[18] = target: Serine/threonine-protein kinase Sgk2 (Homo sapiens) (UniProt Q9HBY8)
[19] = target: Ribosomal protein S6 kinase alpha-1 (Homo sapiens) (UniProt Q15418)
Ribosomal protein S6 kinase alpha-1 (Homo sapiens), sequence (Q15418 whole entry): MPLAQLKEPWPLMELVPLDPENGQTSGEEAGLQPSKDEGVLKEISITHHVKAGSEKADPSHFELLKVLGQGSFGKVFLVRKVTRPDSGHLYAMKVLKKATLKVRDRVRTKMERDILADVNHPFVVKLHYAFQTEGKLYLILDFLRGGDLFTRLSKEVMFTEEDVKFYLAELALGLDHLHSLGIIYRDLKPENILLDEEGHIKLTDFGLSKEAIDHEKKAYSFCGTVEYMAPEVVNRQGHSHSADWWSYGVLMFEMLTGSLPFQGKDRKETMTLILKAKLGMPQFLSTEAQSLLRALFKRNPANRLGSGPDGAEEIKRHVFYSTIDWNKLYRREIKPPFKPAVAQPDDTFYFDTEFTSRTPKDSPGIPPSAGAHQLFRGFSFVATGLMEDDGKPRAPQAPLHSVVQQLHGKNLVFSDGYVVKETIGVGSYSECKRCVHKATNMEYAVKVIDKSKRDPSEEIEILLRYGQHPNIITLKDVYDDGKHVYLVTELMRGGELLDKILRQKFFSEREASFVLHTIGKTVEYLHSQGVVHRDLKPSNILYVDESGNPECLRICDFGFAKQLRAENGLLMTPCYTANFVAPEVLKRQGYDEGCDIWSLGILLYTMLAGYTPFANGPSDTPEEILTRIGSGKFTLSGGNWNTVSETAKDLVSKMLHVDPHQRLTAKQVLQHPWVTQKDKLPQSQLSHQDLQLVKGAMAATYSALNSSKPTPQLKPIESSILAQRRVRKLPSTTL

[20] = tested on: Epidermal growth factor receptor (Homo sapiens), P00533 [UNDEFINED MUTATION]
Epidermal growth factor receptor (Homo sapiens), P00533 [UNDEFINED MUTATION], sequence (P00533 whole entry, looked up, change not shown): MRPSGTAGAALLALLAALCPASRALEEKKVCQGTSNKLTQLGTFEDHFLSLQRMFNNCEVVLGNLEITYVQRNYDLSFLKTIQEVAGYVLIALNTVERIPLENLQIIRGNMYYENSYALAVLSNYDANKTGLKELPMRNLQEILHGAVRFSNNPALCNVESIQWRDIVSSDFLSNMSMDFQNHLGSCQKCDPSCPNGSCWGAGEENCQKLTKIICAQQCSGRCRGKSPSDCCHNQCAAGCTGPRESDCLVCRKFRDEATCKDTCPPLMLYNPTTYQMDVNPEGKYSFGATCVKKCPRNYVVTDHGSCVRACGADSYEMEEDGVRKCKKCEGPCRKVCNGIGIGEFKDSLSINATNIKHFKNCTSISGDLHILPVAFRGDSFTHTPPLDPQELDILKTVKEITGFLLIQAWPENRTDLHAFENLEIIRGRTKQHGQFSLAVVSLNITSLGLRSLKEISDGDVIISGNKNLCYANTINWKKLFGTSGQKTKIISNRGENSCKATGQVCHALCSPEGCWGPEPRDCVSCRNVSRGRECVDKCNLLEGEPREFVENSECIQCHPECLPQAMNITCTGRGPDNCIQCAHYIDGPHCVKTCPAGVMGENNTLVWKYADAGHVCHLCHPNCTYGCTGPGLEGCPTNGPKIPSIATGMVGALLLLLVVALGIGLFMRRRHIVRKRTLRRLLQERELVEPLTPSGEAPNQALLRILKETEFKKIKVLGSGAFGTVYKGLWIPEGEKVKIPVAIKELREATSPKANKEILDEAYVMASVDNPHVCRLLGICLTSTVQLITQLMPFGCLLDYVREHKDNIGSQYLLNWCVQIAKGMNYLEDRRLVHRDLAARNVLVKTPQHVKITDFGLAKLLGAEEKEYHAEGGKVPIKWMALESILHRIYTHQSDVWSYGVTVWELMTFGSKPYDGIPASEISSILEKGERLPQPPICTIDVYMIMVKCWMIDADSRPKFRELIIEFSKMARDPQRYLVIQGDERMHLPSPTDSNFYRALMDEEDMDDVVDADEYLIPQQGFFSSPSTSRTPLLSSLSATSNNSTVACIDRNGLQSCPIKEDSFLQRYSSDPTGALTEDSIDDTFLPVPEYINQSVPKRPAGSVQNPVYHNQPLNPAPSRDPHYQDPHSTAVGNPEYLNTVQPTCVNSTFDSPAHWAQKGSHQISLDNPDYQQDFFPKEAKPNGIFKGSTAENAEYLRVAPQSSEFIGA

[21] = tested on: Epidermal growth factor receptor (Homo sapiens), P00533 [UNDEFINED MUTATION]; remark: listed apart in the source
[22] = target: Dual specificity tyrosine-phosphorylation-regulated kinase 1B (Homo sapiens) (UniProt Q9Y463)
[23] = target: Mitogen-activated protein kinase kinase kinase 5 (Homo sapiens) (UniProt Q99683)
Mitogen-activated protein kinase kinase kinase 5 (Homo sapiens), sequence (Q99683 whole entry): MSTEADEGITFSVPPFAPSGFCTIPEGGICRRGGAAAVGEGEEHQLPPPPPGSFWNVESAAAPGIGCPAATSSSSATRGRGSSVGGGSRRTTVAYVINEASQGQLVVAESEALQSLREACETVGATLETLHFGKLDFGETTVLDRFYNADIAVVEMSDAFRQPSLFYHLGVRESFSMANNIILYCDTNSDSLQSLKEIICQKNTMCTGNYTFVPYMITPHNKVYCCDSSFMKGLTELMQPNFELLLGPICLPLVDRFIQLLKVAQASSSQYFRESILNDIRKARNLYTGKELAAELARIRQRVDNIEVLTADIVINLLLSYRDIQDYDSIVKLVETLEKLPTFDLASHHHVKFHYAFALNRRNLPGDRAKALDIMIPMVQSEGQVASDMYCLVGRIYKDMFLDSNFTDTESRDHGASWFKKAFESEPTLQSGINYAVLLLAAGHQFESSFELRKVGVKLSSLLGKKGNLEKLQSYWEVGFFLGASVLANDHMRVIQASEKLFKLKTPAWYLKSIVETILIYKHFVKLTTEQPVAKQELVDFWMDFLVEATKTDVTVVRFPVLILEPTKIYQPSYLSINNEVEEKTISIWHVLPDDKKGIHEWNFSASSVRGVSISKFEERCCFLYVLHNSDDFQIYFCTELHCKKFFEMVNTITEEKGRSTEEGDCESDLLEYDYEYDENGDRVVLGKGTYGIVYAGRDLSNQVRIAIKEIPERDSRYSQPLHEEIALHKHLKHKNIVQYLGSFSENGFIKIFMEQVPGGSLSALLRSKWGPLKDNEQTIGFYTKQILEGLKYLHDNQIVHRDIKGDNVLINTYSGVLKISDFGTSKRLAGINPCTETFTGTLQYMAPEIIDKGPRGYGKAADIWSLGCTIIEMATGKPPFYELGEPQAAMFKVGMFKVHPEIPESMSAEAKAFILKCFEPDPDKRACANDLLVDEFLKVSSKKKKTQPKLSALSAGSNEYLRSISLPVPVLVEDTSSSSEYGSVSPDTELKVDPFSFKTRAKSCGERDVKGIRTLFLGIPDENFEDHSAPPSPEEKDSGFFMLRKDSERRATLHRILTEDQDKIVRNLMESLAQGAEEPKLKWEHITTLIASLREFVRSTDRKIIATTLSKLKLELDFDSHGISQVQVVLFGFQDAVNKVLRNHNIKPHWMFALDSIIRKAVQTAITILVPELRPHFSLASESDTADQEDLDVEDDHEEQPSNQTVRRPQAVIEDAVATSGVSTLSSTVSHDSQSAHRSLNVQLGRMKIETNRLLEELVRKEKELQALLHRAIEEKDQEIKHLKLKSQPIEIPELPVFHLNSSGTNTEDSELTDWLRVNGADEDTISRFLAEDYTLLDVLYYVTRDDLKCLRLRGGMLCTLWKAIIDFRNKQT

[24] = target: MAP kinase-activated protein kinase 2 (Homo sapiens) (UniProt P49137)
[25] = tested on: Tyrosine-protein kinase ABL1 (Homo sapiens), P00519 [H396P]; remark: listed apart in the source
[26] = target: Dual specificity mitogen-activated protein kinase kinase 2 (Homo sapiens) (UniProt P36507)
[27] = target: Casein kinase I isoform gamma-1 (Homo sapiens) (UniProt Q9HCP0)
[28] = target: Tyrosine-protein kinase receptor Tie-1 (Homo sapiens) (UniProt P35590)
[29] = target: Ephrin type-A receptor 2 (Homo sapiens) (UniProt P29317)
[30] = target: Rho-associated protein kinase 2 (Homo sapiens) (UniProt O75116)
Rho-associated protein kinase 2 (Homo sapiens), sequence (O75116 whole entry, looked up): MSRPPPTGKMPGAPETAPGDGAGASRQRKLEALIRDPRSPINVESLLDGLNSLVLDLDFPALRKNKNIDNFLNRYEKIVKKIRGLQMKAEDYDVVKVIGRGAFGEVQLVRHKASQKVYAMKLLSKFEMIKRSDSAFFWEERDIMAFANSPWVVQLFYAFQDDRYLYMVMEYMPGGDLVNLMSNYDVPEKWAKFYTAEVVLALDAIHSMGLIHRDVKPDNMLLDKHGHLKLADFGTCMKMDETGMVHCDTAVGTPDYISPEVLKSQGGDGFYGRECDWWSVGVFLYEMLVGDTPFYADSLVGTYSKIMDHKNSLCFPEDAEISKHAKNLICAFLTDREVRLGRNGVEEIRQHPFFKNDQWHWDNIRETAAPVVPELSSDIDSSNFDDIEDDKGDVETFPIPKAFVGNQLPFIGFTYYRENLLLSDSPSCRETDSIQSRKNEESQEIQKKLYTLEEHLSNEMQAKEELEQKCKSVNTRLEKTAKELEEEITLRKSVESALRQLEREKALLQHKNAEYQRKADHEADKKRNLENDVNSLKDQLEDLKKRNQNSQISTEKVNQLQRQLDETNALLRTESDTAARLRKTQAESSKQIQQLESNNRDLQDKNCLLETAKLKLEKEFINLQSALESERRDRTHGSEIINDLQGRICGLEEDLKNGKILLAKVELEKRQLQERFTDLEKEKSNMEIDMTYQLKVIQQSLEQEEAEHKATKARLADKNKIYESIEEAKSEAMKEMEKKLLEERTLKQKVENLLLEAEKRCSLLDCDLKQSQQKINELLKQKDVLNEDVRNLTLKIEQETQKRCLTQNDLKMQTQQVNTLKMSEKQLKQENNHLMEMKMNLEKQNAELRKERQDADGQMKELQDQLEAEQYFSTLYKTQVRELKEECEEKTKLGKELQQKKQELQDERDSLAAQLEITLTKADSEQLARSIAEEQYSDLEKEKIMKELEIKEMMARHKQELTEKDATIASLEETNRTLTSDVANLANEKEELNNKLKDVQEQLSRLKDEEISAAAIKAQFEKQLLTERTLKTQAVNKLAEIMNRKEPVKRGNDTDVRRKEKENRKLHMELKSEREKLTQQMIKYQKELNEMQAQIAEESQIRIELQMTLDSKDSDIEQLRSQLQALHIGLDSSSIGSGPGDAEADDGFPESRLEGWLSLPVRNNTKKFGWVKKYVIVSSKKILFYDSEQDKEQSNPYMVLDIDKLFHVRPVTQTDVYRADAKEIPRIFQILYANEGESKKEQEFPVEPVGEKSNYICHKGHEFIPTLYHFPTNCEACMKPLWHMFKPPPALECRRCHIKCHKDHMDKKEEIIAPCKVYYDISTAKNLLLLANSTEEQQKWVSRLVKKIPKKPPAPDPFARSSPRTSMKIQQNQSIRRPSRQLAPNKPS

[31] = target: Glycogen synthase kinase-3 alpha (Homo sapiens) (UniProt P49840)
[32] = target: Homeodomain-interacting protein kinase 2 (Homo sapiens) (UniProt Q9H2X6)
[33] = target: Tyrosine-protein kinase JAK2 (Homo sapiens) (UniProt O60674)
[34] = target: Ribosomal protein S6 kinase alpha-1 (Homo sapiens) (UniProt Q15418); remark: listed apart in the source
[35] = target: Tyrosine-protein kinase ABL1 (Homo sapiens) (UniProt P00519)
[36] = tested on: Hepatocyte growth factor receptor (Homo sapiens), P08581 [Y1235D]
[37] = target: High affinity nerve growth factor receptor (Homo sapiens) (UniProt P04629)
[38] = target: TRAF2 and NCK-interacting protein kinase (Homo sapiens) (UniProt Q9UKE5)
[39] = target: Bone morphogenetic protein receptor type-1B (Homo sapiens) (UniProt O00238)
[40] = target: Cyclin-dependent kinase 5 (Homo sapiens) (UniProt Q00535)
[41] = target: Mitogen-activated protein kinase kinase kinase 14 (Homo sapiens) (UniProt Q99558)
[42] = target: Proto-oncogene tyrosine-protein kinase ROS (Homo sapiens) (UniProt P08922)
[43] = target: 5'-AMP-activated protein kinase catalytic subunit alpha-1 (Homo sapiens) (UniProt Q13131)
[44] = target: Mitogen-activated protein kinase 7 (Homo sapiens) (UniProt Q13164)
[45] = target: Tyrosine-protein kinase FRK (Homo sapiens) (UniProt P42685)

Measured: residual activity

O=C1NC(c2ccccn2)Sc2ccccc21 (stereo not given) [BTZO-4]
inactive: [1] 80% | [2] 72% | [3] 81% | [4] 79% | [5] 72% | [6] 100% | [7] 77% | [8] 100% | [9] 100% | [10] 88% | [11] 79% | [12] 78% | [13] 88% | [14] 72% | [15] 67% | [16] 87% | [17] 100% | [18] 72% | [19] 100% | [20] 68% | [21] 100% | [22] 100% | [23] 72% | [24] 100% | [25] 84% | [26] 75% | [27] 90% | [28] 65% | [29] 100% | [30] 67% | [31] 73% | [32] 80% | [33] 84% | [34] 100% | [35] 72% | [36] 96% | [37] 100% | [38] 100% | [39] 71% | [40] 86% | [41] 92% | [42] 95% | [43] 100% | [44] 96% | [45] 100%

O=c1nc(-c2ccccn2)sc2ccccc12 [BTZO-1]
inactive: [1] 100% | [2] 76% | [3] 94% | [4] 100% | [5] 73% | [6] 84% | [7] 100% | [8] 100% | [9] 100% | [10] 89% | [11] 71% | [12] 71% | [13] 97% | [14] 84% | [15] 94% | [16] 83% | [17] 100% | [18] 85% | [19] 100% | [20] 74% | [21] 100% | [22] 100% | [23] 75% | [24] 100% | [25] 99% | [26] 89% | [27] 96% | [28] 91% | [29] 100% | [30] 94% | [31] 82% | [32] 76% | [33] 100% | [34] 100% | [35] 89% | [36] 100% | [37] 100% | [38] 83% | [39] 75% | [40] 85% | [41] 100% | [42] 100% | [43] 100% | [44] 100% | [45] 100%
